The source of these data is PMC6268935, “Antiatherogenic Properties of Acetone Extract of Alpinia zerumbet Seeds” (Molecules, 2012).

Molecules are shown by their SMILES. pIC50: −log10 of the molar value. ≈ marks a conversion by molar mass, not a printed value. Like-named read-outs stand apart in the source and are kept apart here.

What is called pIC50 is −log10 of the IC50, conventionally taken in molar units. For orientation: IC50 means the concentration that gives 50% inhibition.

Data set [1] concerns the target T1, 15-Lipoxygenase from soybean (15-LO) (Glycine max, UniProt P08170).
T1 construct: purchased Cayman Chemical Company
The experiment in a line: 15-Lipoxygenase inhibition assay (linoleic acid substrate). In kind it is biochemical. The settings on record: for IC50 / IC50 15-LO inhibition: n = 3; for IC50: read-out: IC50 15-LO inhibition (converted). The protocol:
The final enzyme concentration was 500 units/mL and the test samples were dissolved in DMSO solutions. All measurements were carried out at least twice, in each instance using caffeic and ferulic acids, a well-known inhibitor of 15-LO, as positive controls.

Data set [2] addresses T2, porcine pancreatic lipase (PL) (Sus scrofa, UniProt P00591).
T2 sequence (P00591 1-450): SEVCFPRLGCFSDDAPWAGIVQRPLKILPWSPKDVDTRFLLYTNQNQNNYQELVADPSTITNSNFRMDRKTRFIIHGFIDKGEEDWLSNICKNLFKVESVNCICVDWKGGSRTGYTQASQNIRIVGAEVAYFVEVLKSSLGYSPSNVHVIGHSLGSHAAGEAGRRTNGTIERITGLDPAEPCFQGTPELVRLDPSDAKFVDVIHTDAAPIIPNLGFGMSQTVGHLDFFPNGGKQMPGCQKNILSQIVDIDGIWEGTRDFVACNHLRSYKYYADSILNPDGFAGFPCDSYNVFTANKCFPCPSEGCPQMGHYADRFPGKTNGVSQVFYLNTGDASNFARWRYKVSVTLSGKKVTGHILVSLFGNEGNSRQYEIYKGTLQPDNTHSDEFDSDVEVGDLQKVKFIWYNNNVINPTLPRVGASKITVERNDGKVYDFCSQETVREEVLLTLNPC
Nature of the data set: Pancreatic lipase inhibition assay (p-NPB hydrolysis). In kind it is biochemical. The settings on record: for IC50: read-out: IC50 pancreatic lipase (PL) inhibition (converted). The protocol:
The ability of the different parts of crude extracts to inhibit PL was measured as described previously, with slight modifications. Briefly, an enzyme buffer was prepared by the addition of 30 μL (10 units) of PL solution (in 10 mM MOPS and 1 mM EDTA, pH 6.8) to 850 μL of Tris buffer (100 mM Tris-HCl and 5 mM CaCl2, pH 7.0). […] The reaction was allowed to proceed for 15 min at 37 °C after addition of 20 μL of the substrate solution (10 mM p-NPB in dimethyl formamide). The lipase activity was determined by measuring the hydrolysis of p-NPB to p-nitrophenol at 400 nm using microplate reader. Inhibition of the lipase activity was expressed as the percentage decrease in the OD when PL was incubated with the test compounds.

The subject of data set [3] is low-density lipoprotein cholesterol from human plasma (LDL). Nature of the data set: LDL oxidation inhibition assay (CuSO4-induced, TBARS). It is filed as biochemical. The settings on record: copper-induced LDL oxidation, n = 3. The protocol: The oxidation of LDL was investigated as described by Rattan and Arad. […] The reaction was stopped by adding 50 μL of 1 M EDTA and placing the sample at −20 °C for TBA reactive substance (TBARS) assay. The generation of malonyldialdehyde (MDA) equivalents during LDL oxidation was estimated by the TBARS assay using the method of Steinbrecher et al.. LDL oxidation was carried out as described above. After oxidation, LDL was mixed with 1.5 mL of 0.67% TBA and 1.5 mL of 20% TCA. After placing samples in boiling water (100 °C) for 30 min, the reaction product was kept for 30 min at 25 °C and centrifuged for 15 min at 4 °C. The supernatants were read on a spectrophotometer at 532 nm, blank containing 220 μg/mL LDL only. The yields of MDA were used as a standard and the results were expressed as nanomoles of MDA equivalents.

For data set [4], the system named is enzymes in the cholesterol biosynthetic pathway. The conditions noted are these: cited from earlier work.
In data set [5] the test system is rat hepatic stellate cells. More on the design: method as in PMID 15787259. The conditions noted are these: cited from earlier work.
The test system of the next data set is human cancer cell line. Set-up: method as in PMID 19382453. The conditions noted are these: cited from earlier work.
The conditions of data set [6]: normal human; cited from earlier work.
Data set [7] deals with accelerated atherosclerosis in native hearts. Set-up: method as in PMID 8419015. The settings on record: native hearts of a rabbit heart transplant model; cited from earlier work.
A further data set has as its target tyrosinase mushroom (Agaricus bisporus, UniProt C7FF04). Nature of the data set: Anti-tyrosinase activity assay. It is filed as biochemical. The settings on record: n = 3.

T1 sequence (P08170 whole entry): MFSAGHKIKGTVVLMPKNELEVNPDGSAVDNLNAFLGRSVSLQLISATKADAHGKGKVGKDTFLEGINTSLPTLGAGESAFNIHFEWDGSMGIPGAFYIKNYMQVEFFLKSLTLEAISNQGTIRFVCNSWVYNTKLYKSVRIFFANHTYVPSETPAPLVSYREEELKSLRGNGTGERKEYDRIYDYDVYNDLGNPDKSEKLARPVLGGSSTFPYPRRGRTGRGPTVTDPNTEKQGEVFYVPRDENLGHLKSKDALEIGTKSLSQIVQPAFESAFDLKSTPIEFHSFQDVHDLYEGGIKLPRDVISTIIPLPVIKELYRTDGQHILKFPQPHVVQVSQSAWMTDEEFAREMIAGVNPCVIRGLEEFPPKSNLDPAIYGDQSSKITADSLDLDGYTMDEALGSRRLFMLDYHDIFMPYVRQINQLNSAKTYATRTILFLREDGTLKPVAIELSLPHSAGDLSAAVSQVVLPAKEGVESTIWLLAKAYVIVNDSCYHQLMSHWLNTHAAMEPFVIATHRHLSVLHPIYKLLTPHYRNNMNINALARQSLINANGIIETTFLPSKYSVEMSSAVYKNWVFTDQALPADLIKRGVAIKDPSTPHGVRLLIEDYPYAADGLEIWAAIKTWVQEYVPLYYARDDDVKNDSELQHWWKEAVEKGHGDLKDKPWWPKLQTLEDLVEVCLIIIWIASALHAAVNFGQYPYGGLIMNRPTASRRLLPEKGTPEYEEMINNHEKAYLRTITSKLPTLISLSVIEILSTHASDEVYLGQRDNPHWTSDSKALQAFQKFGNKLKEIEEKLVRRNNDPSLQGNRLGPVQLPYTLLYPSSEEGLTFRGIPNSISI
tyrosinase mushroom, sequence (C7FF04 1-392): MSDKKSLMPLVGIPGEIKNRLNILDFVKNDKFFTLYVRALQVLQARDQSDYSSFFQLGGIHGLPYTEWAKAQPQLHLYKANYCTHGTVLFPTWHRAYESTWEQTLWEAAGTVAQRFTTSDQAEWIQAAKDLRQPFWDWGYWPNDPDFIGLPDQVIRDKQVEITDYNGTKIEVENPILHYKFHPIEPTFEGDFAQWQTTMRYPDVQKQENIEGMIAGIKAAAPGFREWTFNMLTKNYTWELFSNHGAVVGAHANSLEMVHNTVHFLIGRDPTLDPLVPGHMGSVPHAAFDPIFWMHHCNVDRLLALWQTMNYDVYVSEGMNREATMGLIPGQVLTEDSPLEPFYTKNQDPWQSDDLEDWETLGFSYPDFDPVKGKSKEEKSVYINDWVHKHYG
Description for tyrosinase mushroom: Tyrosinase activity inhibition was determined by the method as described previously [29]. In brief, sample extracts were dissolved in methanol to make the different concentrations (μg/mL). The 96-well plate was set up in the following order; 120 μL of phosphate buffer (20 mM, pH 6.8), 20 μL of sample and 20 μL of tyrosinase mushroom (500 units/mL in 20 mM phosphate buffer). After incubation at 25 °C for 15 min, reaction was initiated by adding 20 μL of 0.85 mM L-tyrosine solution to each well. The enzyme activity was determined by measuring the absorbance at 470 nm using microplate reader (BioRad, Benchmark microplate reader, Hertfordshire, UK). […] The percentage of tyrosinase inhibition was calculated as follows:
where, A = absorbance of the control with enzyme; B = absorbance of the control without enzyme; C = absorbance of the test sample with enzyme; D = absorbance of the test sample without enzyme.

On to `CC(C)[C@H](C)CC[C@@H](C)[C@H]1CC[C@H]2[C@@H]3CC=C4C[C@@H](O)CC[C@]4(C)[C@H]3CC[C@]12C` [campesterol], for which the figures for the pIC50 in data set [1] and in [2] were 3.44 and 3.49, respectively. The “IC50 LDL oxidation inhibition” value in [3] came out at 149.02 ± 1.93 µg/mL (≈ 372 µM). In addition, the “inhibition of enzymes in the cholesterol biosynthetic pathway / cholesterol biosynthesis” value in data set [4] is given as “could not inhibit”.

Regarding `CC(C)CCC[C@@H](C)[C@H]1CC[C@H]2[C@@H]3CC(=O)C4=CC(=O)CC[C@]4(C)[C@H]3CC[C@]12C` [cholest-4-ene-3,6-dione], the results for the IC50 in [1] and in [2] (n = 3) were 85.8 µM and 48.9 µM, respectively. For the same compound, in data set [3], the “IC50 LDL oxidation inhibition” value came out at 16.12 ± 1.43 µg/mL (≈ 40.4 µM). Besides, in data set [5], the “inhibitory activity on proliferation of rat hepatic stellate cells” value is given as “inhibitory activity”. Also, in the data set with human cancer cell line, the “cytotoxic activity against human cancer cell line” value is reported as “cytotoxic activity”.

`C[C@]12CC[C@H](O)CC1=CC[C@@H]1[C@@H]2CC[C@]2(C)C(=O)CC[C@@H]12` [dehydroepiandrosterone, 3β-hydroxy-5-androsten-17-one]: the “effect on serum LDL level” value in data set [6] is “reduce serum LDL level”. In [7], the “effect on development of accelerated atherosclerosis” value was “inhibited the development of accelerated atherosclerosis”.

Turning to `COc1cc(/C=C/C(=O)O)ccc1O` [ferulic acid, reference compound], in [1], the “IC50 15-LO inhibition” value stood at 54.79 ± 1.12 µg/mL (≈ 282 µM).

Consider `O=c1c(O)c(-c2ccc(O)c(O)c2)oc2cc(O)cc(O)c12` [quercetin, reference compound], for which, in data set [3], the “IC50 LDL oxidation inhibition” value amounted to 22.56 ± 0.70 µg/mL (≈ 74.6 µM).

On to `CC[C@H](CC[C@@H](C)[C@H]1CC[C@H]2[C@@H]3CC=C4C[C@@H](O)CC[C@]4(C)[C@H]3CC[C@]12C)C(C)C` [sitosterol], for which the “IC50 15-LO inhibition” value in data set [1] came to 123.34 ± 1.94 µg/mL (≈ 297 µM). Besides, the IC50 tyrosinase inhibition against tyrosinase mushroom worked out at 187.77 ± 0.04 µg/mL (≈ 453 µM). Moreover, in data set [2] (n = 3), the “IC50 pancreatic lipase (PL) inhibition” value was 99.99 ± 1.86 µg/mL (≈ 241 µM). The “IC50 LDL oxidation inhibition” value in data set [3] was determined as 97.76 ± 0.77 µg/mL (≈ 236 µM). Moreover, the “inhibition of enzymes in the cholesterol biosynthetic pathway / cholesterol biosynthesis” value in data set [4] was “could not inhibit”.

For the compound `CC[C@H](/C=C/[C@@H](C)[C@H]1CC[C@H]2[C@@H]3CC=C4C[C@@H](O)CC[C@]4(C)[C@H]3CC[C@]12C)C(C)C` [stigmasterol], the half-maximal inhibitory concentration (IC50) in data set [1] is 182 µM; in data set [2] (n = 3), 303 µM. In addition, the “IC50 LDL oxidation inhibition” value in data set [3] was 50.01 ± 0.77 µg/mL (≈ 121 µM). For the same compound, the “inhibition of enzymes in the cholesterol biosynthetic pathway / cholesterol biosynthesis” value in [4] is “inhibitory effects”.
